Measurements reported in ChEMBL document CHEMBL4052640 (Eur J Med Chem, 2017).

Legend:
Sindbis virus = format: functional; conditions: Vero
[1] = test system: Mammalian orthoreovirus 1; format: functional; conditions: Mammalian orthoreovirus 1, Vero
MDCK = test: Cytotoxicity against dog MDCK cells assessed as reduction in cell viability measured after 5 to 6 days by MTS assay; format: cell-based, Canis lupus familiaris
[2] = test system: Respiratory syncytial virus; format: functional, cell-based; conditions: human respiratory syncytial virus, HeLa
Coxsackievirus B4 [3] = format: functional; conditions: Enterovirus B, Vero
Influenza A virus [4] = format: functional, cell-based; conditions: A/Ned/378/05(H1N1), MDCK
Punta Toro virus = format: functional; conditions: Vero
cells [5] = conditions: MDCK
Yellow fever virus = test: microbe, parasite or virus in culture; conditions: Vero
cells [6] = conditions: Influenza A virus, MDCK
Human respirovirus 3 = test: microbe, parasite or virus in culture; conditions: Human respirovirus 3, Vero
cells [7] = conditions: Influenza A virus, MDCK; remark: listed apart in the source
Coxsackievirus B4 [8] = format: functional, cell-based; conditions: Enterovirus B, HeLa
Influenza A virus [9] = format: functional, cell-based; conditions: A/Ned/378/05(H1N1), MDCK; remark: listed apart in the source
Influenza B virus = test: microbe, parasite or virus in culture; conditions: B/Ned/537/05, MDCK
[10] = test system: Vesicular stomatitis virus; test: microbe, parasite or virus in culture; conditions: HeLa

Row | SMILES | EC50 (Sindbis virus) [µM] | EC50 [1] [µM] | CC50 (MDCK) [µM] | EC50 [2] [µM] | EC50 (Coxsackievirus B4 [3]) [µM] | EC50 (Influenza A virus [4]) [µM] | EC50 (Punta Toro virus) [µM] | EC50 (cells [5]) [µM] | EC50 (Yellow fever virus) [µM] | EC50 (cells [6]) [µM] | EC50 (Human respirovirus 3) [µM] | EC50 (cells [7]) [µM] | EC50 (Coxsackievirus B4 [8]) [µM] | EC50 (Influenza A virus [9]) [µM] | EC50 (Influenza B virus) [µM] | EC50 [10] [µM]
1 | CC1(C)N=C(N)N=C(N)N1c1ccccc1Cl | > 100 | > 100 | > 100 | 48 | > 100 | > 100 | > 100 | 19 | > 100 | 34 | > 100 | > 83 | > 100 | > 100 | 56 | > 100
2 | COc1ccc(N2C(N)=NC(N)=NC2(C)C)cc1 | > 100 | > 100 | > 100 | – | > 100 | – | > 100 | – | > 100 | – | > 100 | – | > 100 | – | – | > 100
3 | CC1(C)N=C(N)N=C(N)N1c1cccc(F)c1 | > 100 | 9.5 | > 100 | 0.01 | > 100 | – | > 100 | 0.2 | > 100 | > 100 | > 100 | 21 | > 100 | – | 1.7 | > 100
4 | CC1(C)N=C(N)N=C(N)N1c1cccc(Br)c1 | > 100 | – | 29 | – | > 100 | – | > 100 | – | > 100 | > 100 | > 100 | > 100 | > 100 | – | – | > 100
5 | CC1(C)N=C(N)N=C(N)N1c1cc(C(F)(F)F)cc(C(F)(F)F)c1 | > 100 | > 100 | > 100 | 0.27 | > 100 | – | > 100 | 0.8 | > 100 | > 100 | > 100 | 36 | > 100 | – | 1.8 | > 100
6 | CC1(C)N=C(N)N=C(N)N1c1ccc(Cl)cc1Cl | > 100 | > 100 | > 100 | > 100 | > 100 | > 100 | > 100 | > 100 | > 100 | ≥ 83 | > 100 | > 83 | > 100 | > 100 | > 100 | > 100
7 | CC1(C)N=C(N)N=C(N)N1c1ccc(C(=O)O)cc1 | > 100 | > 100 | > 100 | > 100 | > 100 | > 100 | > 100 | > 100 | > 100 | > 83 | > 100 | > 83 | > 100 | > 100 | > 100 | > 100
8 | CC(C)C1(C)N=C(N)N=C(N)N1c1ccc(Cl)cc1 (stereo unspecified) | > 100 | > 100 | > 100 | 0.8 | > 100 | 68 | > 100 | 1 | > 100 | 33 | > 100 | 24 | > 100 | 45 | 2.8 | > 100
9 | NC1=NC2(CCCC2)N(c2cccc(C(F)(F)F)c2)C(N)=N1 | > 100 | > 100 | > 100 | 0.2 | > 100 | – | > 100 | 0.33 | > 100 | > 100 | > 100 | > 100 | > 100 | – | 1.6 | > 100
10 | NC1=NC2(CCCC2)N(c2cccc(Cl)c2)C(N)=N1 | > 100 | > 100 | > 100 | 0.22 | > 100 | – | > 100 | 0.4 | > 100 | > 100 | > 100 | 49 | > 100 | – | 4.5 | > 100
11 | NC1=NC2(CCCCC2)N(c2cccc(C(F)(F)F)c2)C(N)=N1 | > 100 | > 100 | > 100 | – | > 100 | – | > 100 | – | > 100 | > 100 | > 100 | > 100 | > 100 | – | – | > 100
12 | CC1(C)N=C(N)N=C(N)N1c1ccc([N+](=O)[O-])cc1 | > 100 | > 100 | > 100 | 27 | > 100 | > 100 | > 100 | 7.8 | > 100 | > 83 | > 100 | > 83 | > 100 | > 100 | 35 | > 100
13 | CCC1(C)N=C(N)N=C(N)N1c1ccc(Cl)cc1 (stereo unspecified) | > 100 | > 100 | > 100 | 5.4 | > 100 | > 100 | > 100 | 2.2 | > 100 | > 83 | > 100 | > 83 | > 100 | > 100 | 8.3 | > 100
14 | NC1=NC2(CCCCC2)N(c2cccc(Cl)c2)C(N)=N1 | > 100 | > 100 | > 100 | – | > 100 | – | > 100 | 3 | > 100 | > 100 | > 100 | > 100 | > 100 | – | 10 | > 100
15 | CCOC(=O)c1ccc(N2C(N)=NC(N)=NC2(C)C)cc1 | > 100 | > 100 | > 100 | > 100 | > 100 | > 100 | > 100 | > 100 | > 100 | > 83 | > 100 | > 83 | > 100 | > 100 | > 100 | > 100
16 | CC1(C)N=C(N)N=C(N)N1c1ccc(Br)cc1 | > 100 | > 100 | 53 | 0.16 | > 100 | 7.3 | > 100 | 1 | > 100 | 39 | > 100 | 19 | > 100 | 21 | 2.9 | > 100
17 | CC1(C)N=C(N)N=C(N)N1c1ccccc1 | > 100 | > 100 | > 100 | – | > 100 | – | > 100 | – | > 100 | – | > 100 | – | > 100 | – | – | > 100
18 | Cc1ccc(N2C(N)=NC(N)=NC2(C)C)cc1 | > 100 | > 100 | > 100 | – | > 100 | 34 | > 100 | 1.2 | > 100 | 53 | > 100 | 34 | > 100 | 48 | 11 | > 100
19 | CC1(C)N=C(N)N=C(N)N1c1ccc(F)cc1 | > 100 | > 100 | > 100 | – | > 100 | – | > 100 | – | > 100 | – | > 100 | – | > 100 | – | – | > 100
20 | CC1(C)N=C(N)N=C(N)N1c1cccc(Cl)c1 | > 100 | – | 1.4 | – | > 100 | – | > 100 | – | > 100 | – | > 100 | – | > 100 | – | – | > 100
21 | NC12CC3CC(CC(C3)C1)C2 [AMANTADINE] | – | – | > 400 | – | – | 2.2 | – | > 400 | – | 124 | – | 211 | – | 2.3 | > 400 | –
22 | CC1(C)N=C(N)N=C(N)N1c1ccc(Cl)cc1 [CYCLOGUANIL] | > 100 | > 100 | 52 | – | > 100 | – | > 100 | – | > 100 | – | > 100 | – | > 100 | – | – | > 100
23 | COc1c(C)c2c(c(O)c1C/C=C(\C)CCC(=O)O)C(=O)OC2 [MYCOPHENOLIC ACID] | 1.4 | – | – | – | > 100 | – | – | – | 2.3 | – | 0.4 | – | – | – | – | –
24 | CCc1nc(N)nc(N)c1-c1ccc(Cl)cc1 [PYRIMETHAMINE] | – | – | 41 | – | – | – | > 100 | – | > 100 | > 83 | – | > 83 | > 100 | – | – | > 100
25 | NC(=O)c1ncn([C@@H]2O[C@H](CO)[C@@H](O)[C@H]2O)n1 [RIBAVIRIN] | > 250 | > 250 | – | 5.8 | > 250 | 7.6 | 29 | – | > 250 | – | – | – | – | 10 | – | –
26 | CC(N)C12CC3CC(CC(C3)C1)C2 (stereo unspecified) [RIMANTADINE] | – | – | > 400 | – | – | – | – | > 400 | – | – | – | – | – | – | > 400 | –
27 | CC(=O)N[C@H]1[C@H]([C@H](O)[C@H](O)CO)OC(C(=O)O)=C[C@@H]1N=C(N)N [ZANAMIVIR] | – | – | > 100 | – | – | – | – | 0.055 | – | 2.3 | – | 6.8 | – | – | 0.06 | –
